Results published in patent US9358290B2, “Pharmaceutical formulations” (MOREX DEVELOPMENT PARTNERS LLP, priority 2012, dated 2016).
Values joined by “and” are separate entries in the source; they are usually repeats but may differ in a detail not shown here. Equal entries are not always repeated. Marks after values point to notes of the source that are not given here.

Tests used:
Format in all cases: physicochemical
[1] = Solubility in mixtures of DMA and water
Description: (§1) Initial solubility screening tests were therefore carried out to determine the solubility of MTL-005 in various water-miscible solvents. The screening tests were carried out by dissolving the MTL-005 in the test solvent, filtering the resulting solution to remove any undissolved materials and assaying the filtrate by measuring the UV absorbance at 420.6 nm.
In order to assess the suitability of DMA solutions of MTL-005 for administration by aqueous infusion, the solubility of MTL-005 in mixtures of DMA and water was assessed using the assay method described above.

[2] = Initial solubility screening in water-miscible solvents (filtrate assayed by UV absorbance at 420.6 nm)
Description: as §1

Stability studies = experiment: Stability studies
[3] = Solubility in DMA/co-solvent mixtures
Description: as §1
According to the invention, water-miscible co-solvents are added to the DMA in order to improve the solubility of the MTL-005 when the formulation is diluted with water. Tests were therefore carried out to determine the solubility of MTL-005 in various DMA/co-solvent mixtures using the methods described above.
In the first series of tests, approximately 50 mg/ml MTL-005 was added to a range of cosolvent vehicles. A solubility in the region of 50 mg/ml was obtained for a range of vehicles (see results in column 1 in Table 3 below), therefore it could not be confirmed that saturated solutions were obtained. The work was therefore repeated at a higher MTL-005 loading of 150 mg/ml (see results in column 2 of Table 3).

Solubility ([1]; vehicle: 20% DMA/80% Water, 5 mg/ml added): <50 µg/mL | Solubility ([1]; vehicle: 40% DMA/60% Water, 5 mg/ml added): <50 µg/mL | Solubility ([1]; vehicle: 60% DMA/40% Water, 20 mg/ml added): <50 µg/mL | Solubility ([1]; vehicle: 80% DMA/20% Water, 18 mg/ml added): <50 µg/mL | Solubility ([1]; vehicle: 100% DMA, 92.5 mg/ml added): >90000 µg/mL | Total MTL-005 dissolved ([2]; solvent: Absolute ethanol): 0.089 mg/mL | Total MTL-005 dissolved ([2]; solvent: Benzyl alcohol): 0.91 mg/mL | Total MTL-005 dissolved ([2]; solvent: Cremophor EL 5% aq): 0.24 mg/mL | Total MTL-005 dissolved ([2]; solvent: Cremophor EL 10% aq): 0.27 mg/mL | Total MTL-005 dissolved ([2]; solvent: Cremophor EL 10% aq(heated)): 1.65 mg/mL | Total MTL-005 dissolved ([2]; solvent: DMA 10% w/v aq): 0.13 mg/mL | Total MTL-005 dissolved ([2]; solvent: DMA 10%, Cremophor EL 5% aq): 0.30 mg/mL | Total MTL-005 dissolved ([2]; solvent: DMA diluted 1 in 10 with Solutol HS15 20% w/v aq): 1.44 mg/mL | Total MTL-005 dissolved ([2]; solvent: Deionised water): 0.001 mg/mL | Total MTL-005 dissolved ([2]; solvent: Glycofurol): 8.68 mg/mL | Total MTL-005 dissolved ([2]; solvent: Macrogol 300): 2.60 mg/mL | Total MTL-005 dissolved ([2]; solvent: N,N-Dimethylacetamide (DMA), result close to concentration in sample, solubility may be greater): 74.08* mg/ml | Total MTL-005 dissolved ([2]; solvent: Polysorbate 20 (5% w/v aq)): 0.27 mg/mL | Total MTL-005 dissolved ([2]; solvent: Polysorbate 20 (10% w/v aq)): 0.13 mg/mL | Total MTL-005 dissolved ([2]; solvent: Polysorbate 20 (20% w/v aq)): 0.13 mg/mL | Total MTL-005 dissolved ([2]; solvent: Polysorbate 20, result close to concentration in sample, solubility may be greater): 5.88* mg/ml | Total MTL-005 dissolved ([2]; solvent: Polysorbate 80 5%, Cremophor EL 5% aq): 0.28 mg/mL | Total MTL-005 dissolved ([2]; solvent: Polysorbate 80 5%, DMA 10% aq): 0.45 mg/mL | Total MTL-005 dissolved ([2]; solvent: Polysorbate 80 5%, DMA 10%, Cremophor EL 5% aq): 0.35 mg/mL | Total MTL-005 dissolved ([2]; solvent: Polysorbate 80 (5% w/v aq)): 0.15 mg/mL and 0.22 mg/mL | Total MTL-005 dissolved ([2]; solvent: Polysorbate 80 (10% w/v aq)): 0.25 mg/mL | Total MTL-005 dissolved ([2]; solvent: Polysorbate 80 (20% w/v aq)): 0.38 mg/mL | Total MTL-005 dissolved ([2]; solvent: Propylene glycol): 0.019 mg/mL | Total MTL-005 dissolved ([2]; solvent: Solutol HS15): 11.50 mg/mL | Total MTL-005 dissolved ([2]; solvent: Solutol HS15 (5% w/v aq)): 0.08 mg/mL | Total MTL-005 dissolved ([2]; solvent: Solutol HS15 (10% w/v aq)): 0.10 mg/mL | Total MTL-005 dissolved ([2]; solvent: Solutol HS15 (20% w/v aq)): 0.16 mg/mL | Total MTL-005 dissolved ([2]; solvent: Soyabean oil): 0.59 mg/mL | Total MTL-005 dissolved ([2]; solvent: pH 7 Britton Robinson buffer): 0.0016 mg/mL | Stability as a dry powder (Stability studies; dry powder): relatively stable as a dry powder | Total MTL-005 dissolved (50 mg/ml added) ([3]; DMA 60%, Macrogol 300 40%): 34 mg/mL | Total MTL-005 dissolved (50 mg/ml added) ([3]; DMA 60%, Propylene Glycol 40%): 4 mg/mL | Total MTL-005 dissolved (50 mg/ml added) ([3]; DMA 60%, Solutol HS 40%, may not be saturated): 51 mg/mL | Total MTL-005 dissolved (150 mg/ml added) ([3]; DMA 60%, Solutol HS 40%): 58 mg/mL | Total MTL-005 dissolved (50 mg/ml added) ([3]; DMA 60%, Tetraglycol 40%, may not be saturated): 53 mg/mL | Total MTL-005 dissolved (150 mg/ml added) ([3]; DMA 60%, Tetraglycol 40%): 94 mg/mL | Total MTL-005 dissolved (50 mg/ml added) ([3]; DMA 60%, Tween 20 40%, may not be saturated): 47 mg/mL | Total MTL-005 dissolved (150 mg/ml added) ([3]; DMA 60%, Tween 20 40%): 37 mg/mL | Total MTL-005 dissolved (150 mg/ml added) ([3]; DMA 70%, Solutol HS 20%, Macrogol 300 10%): 74 mg/mL | Total MTL-005 dissolved (150 mg/ml added) ([3]; DMA 70%, Solutol HS 30%): 70 mg/mL | Total MTL-005 dissolved (50 mg/ml added) ([3]; DMA 80%, Macrogol 300 10%, Propylene Glycol 10%, may not be saturated): 48 mg/mL | Total MTL-005 dissolved (50 mg/ml added) ([3]; DMA 80%, Macrogol 300 10%, Tetraglycol 10%, may not be saturated): 49 mg/mL | Total MTL-005 dissolved (50 mg/ml added) ([3]; DMA 80%, Macrogol 300 20%, may not be saturated): 50 mg/mL | Total MTL-005 dissolved (150 mg/ml added) ([3]; DMA 80%, Macrogol 300 20%): 76 mg/mL | Total MTL-005 dissolved (50 mg/ml added) ([3]; DMA 80%, Propylene Glycol 20%): 27 mg/mL | Total MTL-005 dissolved (50 mg/ml added) ([3]; DMA 80%, Solutol HS 10%, Macrogol 300 10%, may not be saturated): 49 mg/mL | Total MTL-005 dissolved (150 mg/ml added) ([3]; DMA 80%, Solutol HS 10%, Macrogol 300 10%): 95 mg/mL | Total MTL-005 dissolved (50 mg/ml added) ([3]; DMA 80%, Solutol HS 10%, Propylene Glycol 10%, may not be saturated): 50 mg/mL | Total MTL-005 dissolved (150 mg/ml added) ([3]; DMA 80%, Solutol HS 10%, Propylene Glycol 10%): 58 mg/mL | Total MTL-005 dissolved (50 mg/ml added) ([3]; DMA 80%, Solutol HS 10%, Tetraglycol 10%, may not be saturated): 49 mg/mL | Total MTL-005 dissolved (150 mg/ml added) ([3]; DMA 80%, Solutol HS 10%, Tetraglycol 10%): 113 mg/mL | Total MTL-005 dissolved (50 mg/ml added) ([3]; DMA 80%, Solutol HS 20%, may not be saturated): 49 mg/mL | Total MTL-005 dissolved (150 mg/ml added) ([3]; DMA 80%, Solutol HS 20%): 115 mg/mL | Total MTL-005 dissolved (50 mg/ml added) ([3]; DMA 80%, Tetraglycol 10%, Propylene Glycol 10%, may not be saturated): 50 mg/mL | Total MTL-005 dissolved (50 mg/ml added) ([3]; DMA 80%, Tetraglycol 20%, may not be saturated): 52 mg/mL | Total MTL-005 dissolved (150 mg/ml added) ([3]; DMA 80%, Tetraglycol 20%): 131 mg/mL | Total MTL-005 dissolved (50 mg/ml added) ([3]; DMA 80%, Tween 20 10%, Macrogol 300 10%, may not be saturated): 50 mg/mL | Total MTL-005 dissolved (150 mg/ml added) ([3]; DMA 80%, Tween 20 10%, Macrogol 300 10%): 83 mg/mL | Total MTL-005 dissolved (50 mg/ml added) ([3]; DMA 80%, Tween 20 10%, Propylene Glycol 10%, may not be saturated): 49 mg/mL | Total MTL-005 dissolved (150 mg/ml added) ([3]; DMA 80%, Tween 20 10%, Propylene Glycol 10%): 79 mg/mL | Total MTL-005 dissolved (50 mg/ml added) ([3]; DMA 80%, Tween 20 10%, Solutol HS 10%, may not be saturated): 52 mg/mL | Total MTL-005 dissolved (50 mg/ml added) ([3]; DMA 80%, Tween 20 10%, Tetraglycol 10%, may not be saturated): 48 mg/mL | Total MTL-005 dissolved (150 mg/ml added) ([3]; DMA 80%, Tween 20 10%, Tetraglycol 10%): 101 mg/mL | Total MTL-005 dissolved (50 mg/ml added) ([3]; DMA 80%, Tween 20 20%, may not be saturated): 51 mg/mL | Total MTL-005 dissolved (150 mg/ml added) ([3]; DMA 80%, Tween 20 20%): 91 mg/mL
Substance: Copper meso-5,15-bis[3-[(1,2-dicarba-closo-dodecaboranyl)-methoxy]-phenyl]-meso-10,20-dinitroporphyrin [MTL-005]
Stability in solution (Stability studies; in solution): not stable for extended periods in solution
